Like-named read-outs stand apart in the source and are kept apart here.
Tests used:
Format in all cases: in vivo
[1] = system: Tetranychus urticae (spider mites - adult); assay: Contact test on spider mites - adult (TUa), French bean leaf, mortality; details: 72 h, 500 ppm, contact, 3 days, read-out: TUa grading of mortality
How it was run: (§1)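 Compound dissolved in acetone, diluted with water containing 0.01% by weight wetting agent to 500, 250 or 100 ppm. Pests held on host plant or foodstuff; pests and/or medium treated. Mortality scored one to three days later as grade A (80-100%), B (50-79%) or C (<50%) mortality or knockdown.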

[2] = system: Tetranychus urticae (spider mites - ova); assay: Contact test on spider mites - ova (TUe), French bean leaf, mortality; details: 144 h, 500 ppm, contact, 6 days, read-out: TUe grading of mortality
How it was run: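 Graded read-out: A 80-100%, B 50-79%, C below 50% mortality or knockdown, assessed usually 1-3 days post-treatment. Liquid preparations at 500, 250 or 100 ppm by weight, from acetone solution diluted in water with 0.01% wetting agent, applied to pests and/or their host plant or food medium.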

Myzus persicae (aphids) = assay: Contact test on aphids (MP), Chinese Cabbage leaf, mortality; details: 72 h, 500 ppm, contact, 3 days, read-out: MP grading of mortality
How it was run: as §1

[3] = system: Nilaparvata lugens (brown plant hopper); assay: Contact test on brown plant hopper (NL), Rice plant, mortality; details: 72 h, 3 days, read-out: NL grading of mortality
Experimental: (§2) The activity of the Product was determined using a variety of insect pests. The Product was used in the form of liquid preparations containing 500, 250 or 100 parts per million (ppm) by weight of the Product. The preparations were made by dissolving the Product in acetone and diluting the solutions with water containing 0.01% by weight of a wetting agent sold under the trade name "LISSAPOL" NX until the liquid preparations contained the required concentration of the Product. "Lissapol" is a Registered Trade Mark.
(§3) The test procedure adopted with regard to each pest was basically the same and comprised supporting a number of the pests on a medium which was usually a host plant or a foodstuff on which the pests feed, and treating either or both the pests and the medium with the preparations. The mortality of the pests was then assessed at periods usually varying from one to three days after the treatment.
(§4) The results of the tests are given in Table III for each of the Products, at the rate in parts per million given in the second column as a grading of mortality designated as A, B or C wherein A indicates 80-100% mortality or knockdown, B indicates 50-79% mortality or knockdown and C indicates less than 50% mortality or knockdown.

[4] = system: Musca domestica (houseflies - adults); assay: Knockdown test on houseflies - adults (MD/KD), Cotton wool/sugar; details: 500 ppm, 4 hours, read-out: MD/KD grading of knockdown
How it was run: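 Adult houseflies exposed to the compound at 500, 250 or 100 ppm in acetone/water with 0.01% wetting agent, on a cotton wool/sugar medium. Knockdown and mortality assessed, graded A (80-100%), B (50-79%) or C (<50%).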

[5] = system: Musca domestica (houseflies - adults); assay: Contact test on houseflies - adults (MD), Cotton wool/sugar, mortality; details: 500 ppm, contact, read-out: MD grading of mortality
How it was run: as §1

[6] = system: Blattella germanica (cockroach nymphs); assay: Residual test on cockroach nymphs (BG/R), Plastic pot, mortality; details: 72 h, 3 days, read-out: BG/R grading of mortality
Experimental: as §2, §3, §4
BG/R Blattella germanica

[7] = system: Heliothis virescens (tobacco budworm - larvae); assay: Residual test on tobacco budworm larvae (HV), Cotton leaf, mortality; details: 48 h, read-out: HV grading of mortality
How it was run: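 Product in acetone diluted with water containing 0.01% Lissapol NX, at 500, 250 or 100 ppm; pests and/or host medium (here cotton leaf) treated. Mortality scored one to three days later, graded A (80-100%), B (50-79%), C (<50%).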

[8] = system: Spodoptera exigua (lesser army worm - larvae); assay: Residual test on lesser army worm larvae (SP), Cotton leaf, mortality; details: 48 h, 500 ppm, residual, read-out: SP grading of mortality
How it was run: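 Product dissolved in acetone and diluted in water with 0.01% wetting agent to 500, 250 or 100 ppm; larvae and/or cotton leaf host treated. Mortality or knockdown scored one to three days later and graded A (80-100%), B (50-79%) or C (<50%).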

[9] = system: Diabrotica balteata (rootworm larvae); assay: Residual test on rootworm larvae (DB), Filter paper/maize seed, mortality; details: 48 h, 500 ppm, residual, read-out: DB grading of mortality
How it was run: as §1

[10] = system: Nephotettix cincticeps (green leaf hopper - nymphs); assay: Contact test on green leaf hopper nymphs (NC), Rice plant, mortality; details: 500 ppm, contact, read-out: NC grading of mortality
How it was run: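 Product dissolved in acetone, diluted in water with 0.01% wetting agent to 500, 250 or 100 ppm; nymphs and/or host rice plants treated. Mortality or knockdown assessed 1–3 days later, graded A (80-100%), B (50-79%), C (<50%).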

[11] = 24 h, ** test duration of 1 day
[12] = 72 h, * test duration of 3 days

SMILES | mortality at 500 ppm [1] [%] | mortality at 500 ppm [2] [%] | mortality at 500 ppm (Myzus persicae (aphids)) [%] | mortality at 500 ppm [3] [%] | pest or weed control at 500 ppm [4] [%] | mortality at 500 ppm [5, 11] [%] | mortality at 500 ppm [6] [%] | mortality at 500 ppm [7] [%] | mortality at 500 ppm ([8]; * test duration of 3 days) [%] | mortality at 500 ppm ([9]; * test duration of 3 days) [%] | mortality at 500 ppm [10, 12] [%] | mortality at 500 ppm ([5]; 72 h, 3 days) [%] | mortality at 500 ppm ([10]; 48 h, 2 days) [%] | mortality at 500 ppm ([8]; 2 days) [%] | mortality at 500 ppm ([9]; 2 days) [%]
C=CCc1c(F)c(F)c(COC(=O)C(c2cnc(-c3ccccc3)nc2)C(C)C)c(F)c1F (racemic) [Compound 113, 4-(prop-2-en-1-yl)-2,3,5,6-tetrafluorobenzyl (RS)-2-[2-phenylpyrimidin-5-yl)-3-methylbutanoate] | < 50 | < 50 | 50 to 79 | < 50 | 80 to 100 | 80 to 100 | < 50 | < 50 | < 50 | < 50 |  |  |  |  | 
C=CCc1c(F)c(F)c(COC(=O)C(c2cnc(C(F)(F)F)nc2)C(C)C)c(F)c1F (racemic) [Compound 114, 2,3,5,6-tetrafluoro-4-(prop-2-en-1-yl)benzyl (RS)-2-(2-trifluoromethylpyrimidin-5-yl)-3-methylbutanoate] | 80 to 100 | 80 to 100 | 80 to 100 |  | 80 to 100 |  | 80 to 100 | 80 to 100 | 80 to 100 | 80 to 100 | 80 to 100 | 80 to 100 |  |  | 
C=CCc1c(F)c(F)c(COC(=O)C(c2cnc(N(C)C)nc2)C(C)C)c(F)c1F (racemic) [Compound 115, 2,3,5,6-tetrafluoro-4-(prop-2-en-1-yl)benzyl (RS)-2-[2-(N,N-dimethylamino)pyrimidin-5-yl]-3-methylbutanoate] | 80 to 100 | 80 to 100 | 80 to 100 | < 50 | < 50 | 80 to 100 | 80 to 100 | 80 to 100 | 80 to 100 | < 50 |  |  |  |  | 
COCc1c(F)c(F)c(COC(=O)C(c2cnc(C(F)(F)F)nc2)C(C)C)c(F)c1F (racemic) [Compound 116, 2,3,5,6-tetrafluoro-4-(methoxymethyl)benzyl (RS)-2-(2-trifluoromethylpyrimidin-5-yl)-3-methylbutanoate] | 80 to 100 | 80 to 100 | 80 to 100 | 80 to 100 | 80 to 100 | 80 to 100 | 80 to 100 | 80 to 100 | 80 to 100 | 80 to 100 |  |  |  |  | 
C=CCc1c(F)c(F)c(COC(=O)C(c2cnc(C(Cl)(Cl)Cl)nc2)C(C)C)c(F)c1F (racemic) [Compound 117, 2,3,5,6-tetrafluoro-4-(prop-2-en-1-yl)benzyl (RS)-2-(2-trichloromethylpyrimidin-5-yl)-3-methylbutanoate] | 80 to 100 | 80 to 100 | 80 to 100 | 80 to 100 | 80 to 100 | 80 to 100 | 80 to 100 | 80 to 100 | 80 to 100 | 50 to 79 |  |  |  |  | 
COCc1c(F)c(F)c(COC(=O)C(c2cnc(Cl)nc2)C(C)C)c(F)c1F (racemic) [Compound 118, 2,3,5,6-tetrafluoro-4-(methoxymethyl)benzyl (RS)-2-(2-chloropyrimidin-5-yl)-3-methylbutanoate] | 50 to 79 | < 50 | 80 to 100 | < 50 |  | 80 to 100 | < 50 | 50 to 79 | 50 to 79 | < 50 |  |  |  |  | 
C=CCc1c(F)c(F)c(COC(=O)C(c2cnc(C)nc2)C(C)C)c(F)c1F (racemic) [Compound 119] | 80 to 100 | < 50 | 80 to 100 |  | 80 to 100 | 80 to 100 | 80 to 100 | < 50 | 80 to 100 | 80 to 100 | 80 to 100 |  |  |  | 
COCc1c(F)c(F)c(COC(=O)C(c2cnc(C)nc2)C(C)(C)C)c(F)c1F (racemic) [Compound 120, 2,3,5,6-tetrafluoro-4-(methoxymethyl)-benzyl (RS)-2-(2-methylpyrimidin-5-yl)-3,3-dimethylbutanoate] | 80 to 100 | < 50 | 80 to 100 |  | 80 to 100 |  | < 50 | 80 to 100 |  |  |  | 80 to 100 | 80 to 100 | 80 to 100 | < 50
CC[C@@H](C(=O)O[C@@H](C#N)c1ccc(F)c(Oc2ccccc2)c1)c1cnc(C(C)(C)C)nc1 (racemic) [Compound 121, (RS)-α-cyano-4-fluoro-3-phenoxybenzyl (RS)-2-[2-(1,1-dimethylethyl)pyrimidin-5-yl]butanoate] | 80 to 100 | < 50 | 80 to 100 | < 50 | 50 to 79 | 80 to 100 | < 50 | 80 to 100 | 80 to 100 | 80 to 100 |  |  |  |  | 
CCC(C(=O)OCc1c(F)c(F)c(C)c(F)c1F)c1cnc(C(C)(C)C)nc1 (racemic) [Compound 122, 2,3,5,6-tetrafluoro-4-methyl (RS)-2-[2-(1,1-dimethylethyl)pyrimidin-5-yl]butanoate] | 80 to 100 | < 50 | 80 to 100 | < 50 | 80 to 100 | 80 to 100 | < 50 | 80 to 100 | 80 to 100 | 50 to 79 |  |  |  |  | 
CC(C)(C)c1ncc(C(C(=O)OCc2ccc(F)c(Oc3ccccc3)c2)C2CC2)cn1 (racemic) [Compound 125, 4-fluoro-3-phenoxybenzyl (RS)-2-[2-(1,1-dimethylethyl)pyrimidin-5-yl]-2cyclopropylacetate] | 80 to 100 | < 50 | 80 to 100 |  | 50 to 79 | 50 to 79 | < 50 | 80 to 100 | 80 to 100 | 80 to 100 | 80 to 100 |  |  |  | 
COCc1c(F)c(F)c(COC(=O)C(c2cnc(C)nc2)C(C)C)c(F)c1F (racemic) [Compound 214, 4-(methoxymethyl)-2,3,5,6-tetrafluoroenzyl (RS)-2-(2-methylpyrimidin-5-yl)-3-methylbutanoate] | 80 to 100 | < 50 | 80 to 100 |  | 80 to 100 | 50 to 79 | 80 to 100 | < 50 | 80 to 100 | < 50 | 80 to 100 |  |  |  | 

Reference: patent publication US4962109A, “Insecticidally and acaricidally active pyrimidine esters and intermediates therefor” (Imperial Chemical Industries PLC, priority 1985, dated 1990)
